Consider 2 compounds from patent US9642804B2, “Cationic lipids with various head groups for oligonucleotide delivery” (priority 2009, dated 2017).

Data set [1] can be described thus: Rat in vivo toxicity, serum ALT and AST. Set-up: species or system Sprague-Dawley rat. The note with it: ApoB siRNA RDV; for LFTs relative to PBS control dosed rats: serum 24 hours after dosing. The protocol: After LNP administration, rats are placed in cages with normal diet and water present. Six hours post dose, food is removed from the cages. Animal necropsy is performed 24 hours after LNP dosing. Rats are anesthetized under isoflurane for 5 minutes, then maintained under anesthesia by placing them in nose cones continuing the delivery of isoflurane until ex-sanguination is completed. Blood is collected from the vena cava using a 23 guage butterfly venipuncture set and aliquoted to serum separator vacutainers for serum chemistry analysis. Punches of the excised caudate liver lobe are taken and placed in RNA Later (Ambion) for mRNA analysis. Preserved liver tissue was homogenized and total RNA isolated using a Qiagen bead mill and the Qiagen miRNA-Easy RNA isolation kit following the manufacturer's instructions. Liver ApoB mRNA levels were determined by quantitative RT-PCR. Message was amplified from purified RNA utilizing a rat ApoB commercial probe set (Applied Biosystems Cat # RN01499054_ml). The PCR reaction was performed on an ABI 7500 instrument with a 96-well Fast Block. The ApoB mRNA level is normalized to the housekeeping PPIB (NM 011149) mRNA. PPIB mRNA levels were determined by RT-PCR using a commercial probe set (Applied Biosytems Cat. No. Mm00478295_ml). Results are expressed as a ratio of ApoB mRNA/PPIB mRNA. All mRNA data is expressed relative to the PBS control dose. Serum ALT and AST analysis were performed on the Siemens Advia 1800 Clinical Chemistry Analyzer utilizing the Siemens alanine aminotransferase (Cat# 03039631) and aspartate aminotransferase (Cat# 03039631) reagents.

The subject of data set [2] is cytokines IL-6 and mKC. Nature of the data set: Mouse in vivo cytokine induction 3 hours post injection (plasma, SearchLight array). The note with it: Luc siRNA RDV; plasma three hours post dose. The procedure:
(§1) LNPs utilizing Compound 9 or 12, in the nominal compositions described immediately above, were evaluated for in vivo efficacy and induction of inflammatory cytokines in a luciferase mouse model. The siRNA targets the mRNA transcript for the firefly (Photinus pyralis) luciferase gene (Accession # M15077). […] The in vivo luciferase model employs a transgenic mouse in which the firefly luciferase coding sequence is present in all cells. ROSA26-LoxP-Stop-LoxP-Luc (LSL-Luc) transgenic mice licensed from the Dana Farber Cancer Institute are induced to express the Luciferase gene by first removing the LSL sequence with a recombinant Ad-Cre virus (Vector Biolabs). Due to the organo-tropic nature of the virus, expression is limited to the liver when delivered via tail vein injection. Luciferase expression levels in liver are quantitated by measuring light output, using an IVIS imager (Xenogen) following administration of the luciferin substrate (Caliper Life Sciences). Pre-dose luminescence levels are measured prior to administration of the RDVs. Luciferin in PBS (15 mg/mL) is intraperitoneally (IP) injected in a volume of 150 uL. After a four minute incubation period mice are anesthetized with isoflurane and placed in the IVIS. imager. The RDVs (containing siRNA) in PBS vehicle were tail vein injected in a volume of 0.2 mL. Final dose levels ranged from 0.3 to 3 mg/kg siRNA. PBS vehicle alone was dosed as a control. Three hours post dose, mice were bled retro-orbitally to obtain plasma for cytokine analysis. Mice were imaged 48 hours post dose using the method described above. Changes in luciferin light output directly correlate with luciferase mRNA levels and represent an indirect measure of luciferase siRNA activity. In vivo efficacy results are expressed as % inhibition of luminescence relative to pre-dose luminescence levels. Plasma cytokine levels were determined using the SearchLight multiplexed cytokine chemoluminescent array (Pierce/Thermo). Systemic administration of the luciferase siRNA RDVs decreased luciferase expression in a dose dependant manner. […] Compound 12, (Table 1 and FIG. 2). […] However, average cytokine induction was lower in the animals dosed with the Compound 9 RDV, relative to the Compound 12 RDV.(FIG. 1).

Data set [3] is described as follows: Rhesus monkey in vivo toxicity, serum ALT and AST. Set-up: species or system Macaca mulatta (rhesus) monkey. The conditions noted are these: ApoB siRNA RDV; 3.6 mg/kilogram siRNA intravenous. The procedure:
(§2) LNPs utilizing Compounds 9 or 12 in the nominal compositions described above, were evaluated for in vivo efficacy and increases in alanine amino transferases (ALT) and aspartate amino transferase (AST) in male or female Macaca mulatta (rhesus) monkeys. The siRNA targets the mRNA transcript for the ApoB gene (Accession # XM 001097404). […] The RDVs (containing siRNA) in PBS vehicle were administered by intravenous injection in the saphenous vein at an injection rate of 20 mL/minute to a dose level of 3.6 mg/kilogram siRNA. The injection volumes were from 1.9 to 2.1 mL/kilogram and monkeys ranged in weight from 2.5 to 4.5 kilograms. Each RDV or PBS control was administered to two monkeys. At multiple days post dose, 1 mL blood samples were drawn from the femoral artery for serum chemistry analysis. Monkeys were fasted overnight prior to blood draws. Serum ALT and AST analysis were performed on the Siemens Advia 1800 Clinical Chemistry Analyzer utilizing the Siemens alanine aminotransferase (Cat# 03039631) and aspartate aminotransferase (Cat# 03039631) reagents. As a measure of efficacy, LDL-C was monitored as a downstream surrogate marker of ApoB mRNA reduction. At eight days post systemic administration, of RDVs containing Compounds 9 or 12, reduced serum levels of LDL-C to less than 50% of pre-dose levels (FIG. 4). The RDV containing Compound 9 reduced LDL-C levels to a greater extent than the RDV containing Compound 12 (ave.: −63% vs. −53%). ALT and AST were elevated relative to predose values in monkeys treated with both Compounds 9 and 12 RDVs (FIG. 4).

The subject of data set [4] is mRNA transcript for the ApoB gene. Put plainly: Rhesus monkey in vivo efficacy, serum LDL-C as surrogate marker of ApoB mRNA reduction. Set-up: species or system Macaca mulatta (rhesus) monkey. The conditions noted are these: ApoB siRNA RDV; 3.6 mg/kilogram siRNA intravenous; average of two monkeys. The protocol: as §2, with “The RDV containing Compound 9 reduced LDL-C levels to a greater extent than the RDV containing Compound 12 (ave.: −63% vs. −53%). ALT and AST were elevated relative to predose values in monkeys treated with both Compounds 9 and 12 RDVs (FIG. 4).” left out

Data set [5] concerns mRNA transcript for the firefly (Photinus pyralis) luciferase gene. Put plainly: Mouse in vivo efficacy, luciferase mouse model (liver bioluminescence, IVIS). The note with it: for Average % Inhibition of Bioluminescence: LNP (cationic lipid/cholesterol/PEG-DMG 60/38/2) with Luc siRNA, tail vein, 48 hours post dose, relative to pre-dose. The procedure:
as §1

Where [6] appears, read: rat serum 24 hours after dosing.

SMILES strings stand for the structures.

Turning to `CCCCCCCC/C=C\CCCCCCCCOC[C@@H](COCCCCCCO[C@H]1CC[C@@]2(C)C(=CC[C@@H]3C2CC[C@@]2(C)C3CC[C@@H]2[C@H](C)CCCC(C)C)C1)N(C)C` (stereo partly shown) [Compound 9], in data set [1] (setting [6]), the “ALT levels, comparison of the RDVs” value is reported as “increased to a greater extent”. Further, the “LFTs relative to PBS control dosed rats” value in data set [1] is reported as “An increase in LFTs”. Also, in data set [2], the “Average cytokine induction, Compound 9 RDV relative to Compound 12 RDV” value is recorded as “lower”; the “Mouse plasma level of IL-6 relative to the PBS control” value is “significantly increased”; the “Mouse plasma level of mKC relative to the PBS control” value was “significantly increased”. In addition, in data set [3], the “ALT relative to predose values” is “elevated”; the “AST relative to predose values” is recorded as “elevated”; the “Elevation of ALT, comparison of the RDVs” value is reported as “approximately equivalent”. Besides, the “Reduction of LDL-C levels (ave.)” value in data set [4] is −63%. Also, the “Average % Inhibition of Bioluminescence” value in data set [5] (0.1 mg Kg^−1) is 80%. Besides, the “Average % Inhibition of Bioluminescence” value in data set [5] (0.3 mg Kg^−1) was 89%. In data set [5] (1.0 mg Kg^−1), the “Average % Inhibition of Bioluminescence” value is on record as 91%. Besides, the “Efficacy in decreasing luciferase expression, comparison of the RDVs” value in data set [5] (Luc siRNA RDV, Compound 9 RDV versus Compound 12 RDV) is given as “Greater efficacy”.

Regarding `CCCCC/C=C\C/C=C\CCCCCCCCOCC(CN(C)C)OCCCCCCCCO[C@H]1CC[C@@]2(C)C(=CC[C@H]3[C@@H]4CC[C@H]([C@H](C)CCCC(C)C)[C@@]4(C)CC[C@@H]32)C1` (stereo partly shown) [Compound 12, S-Octyl CLinDMA, reference compound], in data set [1] (setting [6]), the “AST levels, comparison of the RDVs” value is listed as “increased more strongly”. For the same compound, the “LFTs relative to PBS control dosed rats” value in data set [1] is listed as “An increase in LFTs”. For the same compound, in data set [2], the “Mouse plasma level of IL-6 relative to the PBS control” value was “significantly increased” and the “Mouse plasma level of mKC relative to the PBS control” value is on record as “significantly increased”. In data set [3], the “ALT relative to predose values” is on record as “elevated”; the “AST relative to predose values” is “elevated”; the “Elevation of ALT, comparison of the RDVs” value is “approximately equivalent”; the “Elevation of AST, comparison of the RDVs” value is listed as “elevated to a markedly higher level”. For the same compound, the “Reduction of LDL-C levels (ave.)” value in data set [4] is recorded as −53%. Besides, the “Average % Inhibition of Bioluminescence” value in data set [5] (0.1 mg Kg^−1) is 54%. The “Average % Inhibition of Bioluminescence” value in data set [5] (0.3 mg Kg^−1) came to 74%. In data set [5] (1.0 mg Kg^−1), the “Average % Inhibition of Bioluminescence” value is listed as 88%.
